GI50 and TGI data for ten molecules are collected here from PubChem BioAssay (NCI).

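96-well plates; 48 h exposure; 5 concentrations. Endpoints by linear interpolation between flanking doses. Not reached: highest tested concentration assigned. The concentration for 50% growth inhibition is given as GI50. TGI denotes the concentration required for complete inhibition of growth.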 Some results are limits rather than exact numbers.

Among the test systems are OVCAR-8 ovarian; TK-10 renal; HCT-116 colon; PC-3 prostate; NCI-H460 lung; UACC-62 melanoma; SR leukemia; SK-OV-3 ovarian; A549 NSCLC; SF-268 CNS.
Holding throughout (assay): inhibition of tumour cell growth, NCI panel, 48 h

Turning to `O=C1CC(c2ccccc2)Cc2nc3ccc(Cl)cc3cc21` (stereo not given), the GI50 in the assay on OVCAR-8 ovarian was 0.386 µM; in the assay on TK-10 renal, 22.3 µM; in the assay with HCT-116 colon it was 0.0472 µM; in the assay on PC-3 prostate, 0.293 µM; in the assay with NCI-H460 lung, 0.343 µM; in the assay with UACC-62 melanoma, 0.15 µM. For the same molecule, the GI50 in the assay with SR leukemia was 0.0553 µM; in the assay on SK-OV-3 ovarian it was 0.753 µM; in the assay on A549 NSCLC, 0.451 µM; with SF-268 CNS, 6.04 µM. Besides, the TGI was greater than 100 µM with OVCAR-8 ovarian; greater than 100 µM in the assay on TK-10 renal; greater than 49.5 µM in the assay with HCT-116 colon; greater than 100 µM with PC-3 prostate; greater than 34.5 µM in the assay on NCI-H460 lung; 35.5 µM with UACC-62 melanoma. In addition, the TGI is 35.2 µM in the assay with SR leukemia, greater than 100 µM in the assay with SK-OV-3 ovarian, greater than 100 µM in the assay with A549 NSCLC and greater than 100 µM in the assay on SF-268 CNS.
With `O=C1OCC2=C1C(c1cccc(F)c1)c1cc3c(cc1N2CCO)OCCO3` (stereo not given), the GI50 in the assay on OVCAR-8 ovarian was 0.244 µM; in the assay on TK-10 renal, 0.363 µM; with HCT-116 colon, 0.204 µM; in the assay with PC-3 prostate, 0.195 µM; with NCI-H460 lung it was 0.187 µM; in the assay on UACC-62 melanoma it was 0.112 µM. For the same molecule, the GI50 in the assay with SR leukemia was 0.078 µM; with SK-OV-3 ovarian, 0.26 µM; with A549 NSCLC, 0.32 µM; in the assay on SF-268 CNS it was 0.381 µM. In addition, the TGI in the assay with OVCAR-8 ovarian, with TK-10 renal, with HCT-116 colon, in the assay on PC-3 prostate, in the assay on NCI-H460 lung and in the assay on UACC-62 melanoma was greater than 50 µM in each case. For the same molecule, the TGI in the assay with SR leukemia, in the assay with SK-OV-3 ovarian, in the assay on A549 NSCLC and with SF-268 CNS was greater than 50 µM each time.
Take `COc1ccc(C(=O)Nc2ncc(Cc3ccc(F)cc3)s2)cc1`: the GI50 in the assay on OVCAR-8 ovarian was 0.135 µM; with TK-10 renal it was 4.31 µM; in the assay on HCT-116 colon, 0.0519 µM; with PC-3 prostate, 0.0513 µM; in the assay with NCI-H460 lung it was 0.0408 µM; in the assay with UACC-62 melanoma, 0.0469 µM. The GI50 in the assay with SR leukemia was 0.0336 µM; in the assay with SK-OV-3 ovarian, 0.277 µM; in the assay on A549 NSCLC, 0.0678 µM; in the assay with SF-268 CNS, 0.481 µM. Also, the TGI in the assay on OVCAR-8 ovarian is greater than 100 µM; in the assay with TK-10 renal, 98.3 µM; with HCT-116 colon it was greater than 100 µM; in the assay on PC-3 prostate it was greater than 100 µM; in the assay on NCI-H460 lung it was greater than 32.6 µM; in the assay on UACC-62 melanoma, greater than 94.4 µM. The TGI in the assay with SR leukemia, in the assay with SK-OV-3 ovarian, with A549 NSCLC and in the assay with SF-268 CNS was greater than 100 µM in each case.
For the molecule `C/C1=C\CC[C@@](C)(O)[C@H]2C[C@H](CC/C(C)=C/CC1)C1(CC1)C(=O)O2`, the GI50 is 20 µM in the assay on OVCAR-8 ovarian; 32.9 µM in the assay on TK-10 renal; 18.1 µM with HCT-116 colon; 14.8 µM in the assay with PC-3 prostate; 19.6 µM in the assay on NCI-H460 lung; 23.9 µM in the assay on UACC-62 melanoma. For the same molecule, the GI50 with SR leukemia was 14.1 µM; in the assay with SK-OV-3 ovarian, greater than 100 µM; in the assay on A549 NSCLC it was 17.4 µM; in the assay with SF-268 CNS, 19.3 µM. Also, the TGI was 40.8 µM in the assay on OVCAR-8 ovarian; greater than 100 µM in the assay with TK-10 renal; 32.2 µM in the assay on HCT-116 colon; 32.4 µM in the assay with PC-3 prostate; 45.7 µM in the assay on NCI-H460 lung; 99.8 µM in the assay on UACC-62 melanoma. In addition, the TGI in the assay on SR leukemia is 32.6 µM; in the assay on SK-OV-3 ovarian, greater than 100 µM; in the assay on A549 NSCLC, 32.3 µM; in the assay on SF-268 CNS it was 41.2 µM.
On to `N#Cc1cc2cc3c4c(c2oc1=O)CCCN4CCC3`, for which the TGI with OVCAR-8 ovarian, with TK-10 renal, in the assay on HCT-116 colon, in the assay with PC-3 prostate, in the assay on NCI-H460 lung and in the assay on UACC-62 melanoma was greater than 100 µM throughout. Further, the TGI in the assay on SR leukemia, in the assay on SK-OV-3 ovarian, with A549 NSCLC and with SF-268 CNS was greater than 100 µM each time.
For `COC(=O)Nc1nc2c(OC)c(OC)c(OC)cc2[nH]1`, the GI50 with OVCAR-8 ovarian was 38.7 µM; with TK-10 renal it was 66.6 µM; in the assay with HCT-116 colon, 10.1 µM; in the assay with PC-3 prostate it was 24.2 µM; in the assay with NCI-H460 lung it was 14.6 µM; in the assay on UACC-62 melanoma it was 13.3 µM. The GI50 was 3.39 µM with SR leukemia, 30.8 µM with SK-OV-3 ovarian, 14.8 µM with A549 NSCLC and 59.2 µM in the assay with SF-268 CNS. Also, the TGI in the assay with OVCAR-8 ovarian, with TK-10 renal, with HCT-116 colon, in the assay on PC-3 prostate, in the assay with NCI-H460 lung and in the assay with UACC-62 melanoma was greater than 100 µM throughout. Also, the TGI was greater than 75.7 µM in the assay on SR leukemia, greater than 100 µM in the assay with SK-OV-3 ovarian, greater than 100 µM in the assay on A549 NSCLC and greater than 100 µM in the assay with SF-268 CNS.
Turning to `CCOC(=O)Nc1nc2c(F)c(F)c(F)cc2s1`, the GI50 with OVCAR-8 ovarian was 48.1 µM; with TK-10 renal, greater than 100 µM; in the assay on HCT-116 colon, 58.6 µM; in the assay with PC-3 prostate it was greater than 100 µM; in the assay with NCI-H460 lung, 71.9 µM; with UACC-62 melanoma, 19.7 µM. Moreover, the GI50 in the assay with SR leukemia was greater than 100 µM; with SK-OV-3 ovarian it was 45.2 µM; with A549 NSCLC it was greater than 100 µM; with SF-268 CNS, 43.8 µM. Also, the TGI in the assay on OVCAR-8 ovarian, in the assay with TK-10 renal, in the assay with HCT-116 colon, in the assay on PC-3 prostate, in the assay with NCI-H460 lung and in the assay with UACC-62 melanoma was greater than 100 µM in each case. Further, the TGI with SR leukemia, with SK-OV-3 ovarian, in the assay with A549 NSCLC and with SF-268 CNS was greater than 100 µM in each case.
For the molecule `Cc1cc(C)cc(Nc2nccc(-c3c(-c4ccc(F)cc4)ncn3C3CCNCC3)n2)c1`, the GI50 was 1.66 µM with OVCAR-8 ovarian; 0.717 µM in the assay on TK-10 renal; 1.13 µM in the assay on HCT-116 colon; 1.56 µM in the assay with PC-3 prostate; 1.27 µM in the assay on NCI-H460 lung; 1.55 µM in the assay with UACC-62 melanoma. Besides, the GI50 is 1.01 µM in the assay with SR leukemia, 2.13 µM with SK-OV-3 ovarian, 1.09 µM in the assay on A549 NSCLC and 1.48 µM in the assay on SF-268 CNS. Besides, the TGI with OVCAR-8 ovarian was determined as 5.01 µM; with TK-10 renal, 2.95 µM; in the assay with HCT-116 colon it was 2.36 µM; in the assay with PC-3 prostate, 3.01 µM; in the assay with NCI-H460 lung, 2.77 µM; with UACC-62 melanoma, 2.95 µM. Also, the TGI with SR leukemia came out at 3.61 µM; with SK-OV-3 ovarian it was 5.09 µM; in the assay with A549 NSCLC it was 3.16 µM; in the assay on SF-268 CNS it was 3.96 µM.
Turning to `Cc1sc2nc(-c3ccccn3)c(/C=N/N=C(N)N)n2c1C`, the GI50 in the assay with OVCAR-8 ovarian is 6.65 µM; in the assay on TK-10 renal, 5.89 µM; in the assay on HCT-116 colon, 4.09 µM; in the assay with PC-3 prostate, 10.2 µM; in the assay on NCI-H460 lung, 13.6 µM; with UACC-62 melanoma it was 4.19 µM. Moreover, the GI50 in the assay on SR leukemia is greater than 100 µM; in the assay with SK-OV-3 ovarian, 9.14 µM; in the assay with A549 NSCLC, 12.6 µM; with SF-268 CNS, 8.15 µM. Further, the TGI in the assay on OVCAR-8 ovarian came out at 68.1 µM; in the assay on TK-10 renal it was 11.2 µM; in the assay on HCT-116 colon, 9.74 µM; with PC-3 prostate, 28.6 µM; in the assay on NCI-H460 lung it was 36.2 µM; with UACC-62 melanoma it was 10.4 µM. Further, the TGI with SR leukemia was greater than 100 µM; with SK-OV-3 ovarian, 20.1 µM; in the assay on A549 NSCLC, 45 µM; in the assay with SF-268 CNS it was 29.8 µM.
In the case of `Cn1c2ccccc2c2cc(-c3ccccc3)c3c(c21)C(=O)C=CC3=O`, the TGI with OVCAR-8 ovarian was found to be 78.3 µM; in the assay with TK-10 renal it was 32 µM; in the assay on HCT-116 colon it was 41.4 µM; in the assay with PC-3 prostate, 34.8 µM; in the assay on NCI-H460 lung, 45.5 µM; in the assay with UACC-62 melanoma, 44.7 µM. In addition, the TGI is 17.5 µM in the assay with SR leukemia, greater than 100 µM with SK-OV-3 ovarian, greater than 100 µM with A549 NSCLC and 77.4 µM in the assay on SF-268 CNS.
